From patent publication US20200129495A1 (BioPharmX, Inc., priority 2018, published 2020)
Read-outs that look alike come from different tables or passages of the source.

Legend:
male C57BL/6J mice [1] = conditions: 2% (w/w) ebastine in ethanol/propylene glycol, topical 2.5 mg/cm^2 daily
Method: Penetration into the skin was assessed in a sample size of three male mice.
The skin surface of the shaved patch was wiped clean with phosphate buffer saline (1×PBS). Mice were left to acclimate overnight.
For five weeks, the test composition was applied daily at a dose of 2.5 mg/cm^2 using a positive displacement pipette and carefully spread in the 12 cm^2 test area using a clean metal spatula.
At the end of the 5-week study period, 10 hairs from each site were plucked from the upper-middle, middle, and lower-middle patch area of each of the mice. In addition, 10 hairs were plucked from outside the patch area for each of the mice in the nontreatment group. The length of each of the plucked hairs was measured with a microcaliper and the resulting values were averaged.
In the study (as described supra), mice were shaved while in the telogen phase. Shaving stimulated hair growth by inducing the transition from rest (telogen phase) to growth (anagen phase). The shaved patch area for each mouse was observed daily for anagen onset, i.e., the first day of the anagen phase of the hair cycle.

[2] = Stability of ebastine in ethanol composition at 40° C.; type: physicochemical; conditions: over the tested period (2 months)
[3] = Description: The pH of each suspension was determined using a pH meter (Orion Star A111, Thermo Scientific, Waltham, Mass.). Following, the pH of each suspension was adjusted with acid 1N HCl to the target pH. A 2 milliliter (mL) sample of the liquid portion of the mixture (supernatant) was removed from the top of each vial and spun in a micro-centrifuge (Eppendorf Minispin, Hamburg Germany) at 12,000 rpm for 2 minutes.
A 10 microliter (μL) sample was injected into a high-performance liquid chromatography machine (HPLC) (Agilent, Santa Clara, Calif.). […] The HPLC system also used a guard column (Phenomenex, Inc.) and a mobile phase consisting of a base solvent of 70 percent (v/v) methanol (Spectrum Chemicals, Gardena, Calif.), and 30 percent (v/v) 40 mM potassium phosphate buffer, pH 4.0 (Spectrum Chemicals, Gardena, Calif.). The HPLC flow rate was 1 mL per minute with a column temperature of 40 degrees centigrade, a detection wavelength of 262 nanometers (nm), and a runtime of at least 15 minutes.

male C57BL/6J mice [4] = conditions: topical 2.5 mg/cm^2 daily, 5 weeks; monitored throughout the study
Method: The modified Draize test is an acute erythema test carried out as follows. A C57BL/6J mouse is shaved in an application area, and the application area allowed to rest for approximately 24 hours and then rinsed with non-irritating soap. A test composition is applied evenly, without significant rubbing, to a 12 cm^2 area of the mouse's skin in a volume of 2.5 mg/cm^2. The sample is allowed to sit uncovered for 24 hours. After 24 hours, the application area is washed gently with lx phosphate buffered saline (1×PBS) and non-irritating soap to facilitate observation of the application area. The application area is then scored according to the following scale: 0=no evidence of erythema; 1=minimal erythema, barely perceptible; 2=definite erythema, readily visible, minimal edema or minimal popular response; 3=erythema and papules; 4=definite edema; 5=erythema, edema, and papules; 6=vesicular eruption; 7=strong reaction spreading beyond test site.
The skin surface of the shaved patch was wiped clean with phosphate buffer saline (1×PBS). Mice were left to acclimate overnight. […]
Clinical signs such as behavior were monitored throughout the study. […] The patch area was assessed for signs of erythema using the modified Draize scoring system and dryness every other day throughout the study period.

[5] = remark: listed apart in the source
Excerpt: Addition of the solvent was repeated until the test material was completely dissolved, resulting in a visually clear solution.

SMILES: CC(C)(C)c1ccc(C(=O)CCCN2CCC(OC(c3ccccc3)c3ccccc3)CC2)cc1 [Ebastine, 1-[4-(1,1-dimethylethyl)phenyl]-4-[4-(diphenylmethoxy)-1-piperidinyl]-1-butanone]
- time to significant anagen induction (average) (male C57BL/6J mice [1]; mice shaved in telogen phase): 10 days
- total average patch coverage with hair (male C57BL/6J mice [1]; study end, after 5 weeks): 90 % of the total patch area
- stability of ebastine in ethanol [2]: stable
- solubility class in 9:1 ethanol:water ([3]; pH range of from 2 to 6): soluble (solubility of 33.3 mg/g or greater)
- solubility class in 9:1 ethanol:water ([3]; pH values above 6, such as 7 to 10): at least sparingly soluble (solubility of 10.0 mg/g or greater)
- Ebastine Solubility in 90:10 Ethanol:Water ([3]; pH 2.3, room temperature): 30.38 (mg/g)
- Ebastine Solubility in 90:10 Ethanol:Water ([3]; pH 6.16, room temperature): 33.35 (mg/g)
- Ebastine Solubility in 90:10 Ethanol:Water ([3]; pH 7.76, room temperature): 16.58 (mg/g)
- Ebastine Solubility in 90:10 Ethanol:Water ([3]; pH 9.90, room temperature): 15.3 (mg/g)
- solubility in ethanol and water mixture compared with ethanol alone or water alone ([3]; pH less than about 7, such as 2.3 to 6.2): exceeded
- solubility of ebastine in water alone ([3]; water alone, useful pH ranges): less than 2 mg/g
- Ebastine Solubility in water ([3]; pH 3.04, room temperature): 1.4 (mg/g)
- Ebastine Solubility in water ([3]; pH 5.06, room temperature): 0 (mg/g)
- Ebastine Solubility in water ([3]; pH 6.91, room temperature): 0 (mg/g)
- solubility class in water ([3]; pH below 5.0, such as 3.0 to 5.0): slightly soluble (solubility of 1.0 to 10.0 mg/g)
- solubility class in water ([3]; pH in the range of 5 to 7, room temperature): insoluble (solubility of less than 1.0 mg/g)
- solubility class in water ([3]; pH values of 5 and above): insoluble (solubility of less than 1.0 mg/g)
- clinical signs: behavior (male C57BL/6J mice [4]): No abnormal behavior
- EBASTINE SOLUBILITY AT ROOM TEMP ([5]; Benzyl Benzoate): >45.0 mg/g
- EBASTINE SOLUBILITY AT ROOM TEMP ([5]; Diethyl Sebacate): 120.6 mg/g
- EBASTINE SOLUBILITY AT ROOM TEMP ([5]; Diethylene Glycol Monoethyl Ether): 33.9 mg/g
- EBASTINE SOLUBILITY AT ROOM TEMP ([5]; Dimethyl Succinate): 0.47 mg/g
- EBASTINE SOLUBILITY AT ROOM TEMP ([5]; Ethyl Acetate): 245.2 mg/g
- EBASTINE SOLUBILITY AT ROOM TEMP ([5]; Methylpyrrolidone): >23.1 mg/g
- EBASTINE SOLUBILITY AT ROOM TEMP ([5]; Triacetin): <1.1 mg/g
- amount of ebastine soluble in 1 gram of diethyl sebacate ([5]; in 1 gram of diethyl sebacate): approximately 120.6 mg
